# Measured values taken from ChEMBL document CHEMBL1138911 (Bioorg Med Chem Lett, 2006).
# Assays:
# [1] = species on record: Mus musculus; experiment: animal or person; settings: SHR, iv
# Description: Analgesic activity in iv dosed SHR mouse by hot plate assay
# [2] = test system: Mus musculus; experiment: Analgesic activity in iv dosed DBA mouse by tail clip assay; assay type: functional
# [3] = species on record: Mus musculus; experiment: animal or person; settings: DBA, Tail, iv
# Description: Analgesic activity in iv dosed DBA mouse by tail flick assay
# [4] = species on record: Mus musculus; experiment: animal or person; settings: DBA, iv
# Description: Analgesic activity in iv dosed DBA mouse by hot plate assay
# [5] = species on record: Mus musculus; experiment: animal or person; settings: SHR, iv; remark: listed apart in the source
# Description: Analgesic activity in iv dosed SHR mouse by tail clip assay
# [6] = species on record: Mus musculus; experiment: animal or person; settings: SHR, iv; remark: listed apart in the source
# Description: Analgesic activity in iv dosed SHR mouse by writhing assay
# [7] = species on record: Mus musculus; experiment: animal or person; settings: SHR, Tail, iv
# Description: Analgesic activity in iv dosed SHR mouse by tail flick assay
# [8] = species on record: Mus musculus; experiment: animal or person; settings: DBA, iv; remark: listed apart in the source
# Description: Analgesic activity in iv dosed DBA mouse by writhing assay
smiles,measurement,setting,value
CO[C@@]12CC[C@@]3(C[C@@H]1[C@](C)(O)C(C)(C)C)[C@H]1Cc4ccc(O)c5c4[C@@]3(CCN1CC1CC1)[C@H]2O5 [BUPRENORPHINE],ED50,[1],0.0233 mg/kg
same,Efficacy,[2],46.7%
same,ED50,[3],0.312 mg/kg
same,ED50,[4],0.195 mg/kg
same,ED50,[5],0.0466 mg/kg
same,ED50,[6],0.0223 mg/kg
same,ED50,[7],0.0404 mg/kg
same,ED50,[8],0.0295 mg/kg
